Assay results from patent EP0982026A2, “Use of aryl-cyclohexylamine derivatives in the manufacture of NMDA receptor blockers” (priority 1998, dated 2000).

Target: T1, NMDA receptor (Rattus norvegicus, UniProt P35439+Q00960)
T1 construct: Membranes were prepared by homogenization of the whole brain minus cerebellum and medulla oblongata; from tissue; host or cells: rat whole brain minus cerebellum and medulla oblongata (membranes)
Assay: 3H-Ro 25-6981 binding (displacement) on rat brain membranes
Set-up: species or system Füllinsdorf albino rats
Details: not given
Procedure: 3H-Ro 25-6981 binding (Ro 25-6981 is [R-(R*,S*)]-a-(4-Hydroxy-phenyl)-b-methyl-4-(phenyl-methyl)-1-piperidine propanol)
Male Füllinsdorf albino rats weighing between 150-200 g were used. Membranes were prepared by homogenization of the whole brain minus cerebellum and medulla oblongata with a Polytron (10.000 rpm, 30 seconds), in 25 volumes of a cold Tris-HCl 50 mM, EDTA 10 mM, pH 7.1 buffer. The homogenate was centrifuged at 48.000 g for 10 minutes at 4°C. The pellet was resuspended using the Polytron in the same volume of buffer and the homogenate was incubated at 37°C for 10 minutes. After centrifugation the pellet was homogenized in the same buffer and frozen at -80°C for at least 16 hours but not more than 10 days. For the binding assay the homogenate was thawed at 37°C, centrifuged and the pellet was washed three times as above in a Tris-HCl 5 mM, pH 7.4 cold buffer. The final pellet was resuspended in the same buffer and used at a final concentration of […] of protein/ml.
3H-Ro 25-6981 binding experiments were performed using a Tris-HCl 50 mM, pH 7.4 buffer. For displacement experiments 5 nM of 3H-Ro 25-6981 were used and non specific binding was measured using 10 mM of tetrahydroisoquinoline and usually it accounts for 10% of the total. The incubation time was 2 hours at 4°C and the assay was stopped by filtration on Whatmann GF/B glass fiber filters (Unifilter-96, Packard, Zürich, Switzerland). The filters were washed 5 times with cold buffer. The radioactivity on the filter was counted on a Packard Top-count microplate scintillation counter after addition of […] of microscint 40 (Canberra Packard S.A., Zürich, Switzerland).
The effects of compounds were measured using a minimum of 8 concentrations and repeated at least once. The pooled normalized values were analyzed using a non-linear regression calculation program which provide IC50 with their relative upper and lower 95% confidence limits (RS1, BBN, USA).

T1 sequence (Q00960 27-1482, other chains not shown): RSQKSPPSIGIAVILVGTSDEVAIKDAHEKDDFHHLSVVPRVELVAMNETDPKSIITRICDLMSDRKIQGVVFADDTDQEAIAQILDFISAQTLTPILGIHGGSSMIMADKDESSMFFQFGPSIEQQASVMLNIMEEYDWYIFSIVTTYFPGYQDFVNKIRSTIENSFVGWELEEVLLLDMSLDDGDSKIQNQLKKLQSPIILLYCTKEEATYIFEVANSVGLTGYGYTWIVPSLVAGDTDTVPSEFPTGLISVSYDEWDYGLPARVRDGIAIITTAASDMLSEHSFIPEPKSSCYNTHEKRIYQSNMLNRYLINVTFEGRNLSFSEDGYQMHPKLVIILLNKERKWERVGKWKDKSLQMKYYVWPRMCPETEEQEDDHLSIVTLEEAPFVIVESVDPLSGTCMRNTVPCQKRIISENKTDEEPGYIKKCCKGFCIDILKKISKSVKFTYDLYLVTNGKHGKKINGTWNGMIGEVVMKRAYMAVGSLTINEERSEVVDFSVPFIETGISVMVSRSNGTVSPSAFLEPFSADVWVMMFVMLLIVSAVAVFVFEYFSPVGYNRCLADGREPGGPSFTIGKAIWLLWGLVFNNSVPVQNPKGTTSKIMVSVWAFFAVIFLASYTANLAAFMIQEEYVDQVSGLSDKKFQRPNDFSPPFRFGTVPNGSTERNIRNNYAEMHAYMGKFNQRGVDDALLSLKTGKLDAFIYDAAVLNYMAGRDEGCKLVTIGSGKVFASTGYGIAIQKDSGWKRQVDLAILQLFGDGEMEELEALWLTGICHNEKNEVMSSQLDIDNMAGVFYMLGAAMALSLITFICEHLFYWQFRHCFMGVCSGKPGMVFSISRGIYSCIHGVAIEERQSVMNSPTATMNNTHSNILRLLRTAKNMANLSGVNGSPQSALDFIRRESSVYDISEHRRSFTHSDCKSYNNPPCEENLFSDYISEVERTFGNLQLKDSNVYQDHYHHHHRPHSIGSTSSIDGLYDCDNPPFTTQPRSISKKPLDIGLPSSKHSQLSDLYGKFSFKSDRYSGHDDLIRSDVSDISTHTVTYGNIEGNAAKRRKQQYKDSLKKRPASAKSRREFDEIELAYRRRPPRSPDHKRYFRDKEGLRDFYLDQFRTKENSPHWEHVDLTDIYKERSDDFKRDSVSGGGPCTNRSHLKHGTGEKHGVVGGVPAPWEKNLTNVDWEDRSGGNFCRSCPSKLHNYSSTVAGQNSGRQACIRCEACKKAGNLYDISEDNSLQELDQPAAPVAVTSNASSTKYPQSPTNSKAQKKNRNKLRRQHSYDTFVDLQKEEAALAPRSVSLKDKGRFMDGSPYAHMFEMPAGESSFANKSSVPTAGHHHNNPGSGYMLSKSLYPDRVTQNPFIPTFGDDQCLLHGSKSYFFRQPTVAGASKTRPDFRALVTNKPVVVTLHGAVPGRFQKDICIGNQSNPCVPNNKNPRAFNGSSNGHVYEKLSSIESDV

Compound	IC50 [nM]
Oc1ccc(C2(O)CCC(NCCCc3ccccc3)CC2)cc1 (stereo not drawn) [Example 71c, cis-4-[1-Hydroxy-4-(3-phenyl-propylamino)-cyclohexyl]-phenol]	25
Oc1ccc([C@H]2OC[C@H](NCCCc3ccccc3)CO2)cc1 [Example 85, trans-4-[5-(3-Phenyl-propylamino)-[1,3]dioxan-2-yl]-phenol 1:1 but-2-enedioic acid]	22

Same assay, conditions: displacement of 5 nM 3H-Ro 25-6981; rat whole brain membranes (minus cerebellum and medulla oblongata); 2 hours at 4°C; read-out: IC50

Compound	IC50 [nM]
Oc1ccc([C@H]2CC[C@H](NCC(O)Cc3ccccc3)CC2)cc1 (mixture of isomers) [Example 50, (RS)-4-[trans-4-(2-Hydroxy-3-phenyl-propylamino)-cyclohexyl]-phenol]	80
CC(CCc1ccccc1)N(C)[C@H]1CC[C@H](c2ccc(O)cc2)CC1 (mixture of isomers) [Example 57b, (RS)-4-[trans-4-[Methyl-(1-methyl-3-phenyl-propyl)-amino]-cyclohexyl]-phenol]	10
CC(CCc1ccccc1)N[C@H]1CC[C@H](c2ccc(O)cc2)CC1 (mixture of isomers) [Example 58, 4-[trans-4-[(RS)-1-Methyl-3-phenyl-propylamino)-cyclohexyl]-phenol]	40
Oc1ccc([C@H]2CC[C@H](NCCCc3ccccc3)CC2)cc1 [Example 22b, trans-4-[4-(3-Phenyl-propylamino)-cyclohexyl]-phenol]	20
Oc1ccc([C@H]2CC[C@H](NCCCCc3ccccc3)CC2)cc1 [Example 24, trans-4-[4-(4-Phenyl-butylamino)-cyclohexyl]-phenol]	70
CN(CCCc1ccccc1)[C@H]1CC[C@H](c2ccc(O)cc2)CC1 [Example 39b, trans-4-{4-[Methyl-(3-phenyl-propyl)-amino]-cyclohexyl}-phenol]	9
CCN(CCCc1ccccc1)[C@H]1CC[C@H](c2ccc(O)cc2)CC1 [Example 40c, trans-4-{4-[Ethyl-(3-phenyl-propyl)-amino]-cyclohexyl}-phenol]	40
CN(CCOc1ccccc1)[C@H]1CC[C@H](c2ccc(O)cc2)CC1 [Example 41b, trans-4-{4-[Methyl-(2-phenoxy-ethyl)-amino]-cyclohexyl}-phenol]	20
Oc1ccc([C@H]2CC[C@H](NCCOc3ccccc3)CC2)cc1 [Example 43b, trans-4-[4-(2-Phenoxy-ethylamino)-cyclohexyl]-phenol]	20
Cc1ccc(OCCN(C)[C@H]2CC[C@H](c3ccc(O)cc3)CC2)cc1 [Example 44b, trans-4-[4-[Methyl-(2-p-tolyloxy-ethyl)-amino]-cyclohexyl]-phenol]	8
Cc1ccc(OCCN(C)[C@H]2CC[C@@H](c3ccc(O)cc3)CC2)cc1 [Example 45b, cis-4-[4-[Methyl-(2-p-tolyloxy-ethyl)-amino]-cyclohexyl]-phenol]	130
CN(CCOc1ccc(F)cc1)[C@H]1CC[C@H](c2ccc(O)cc2)CC1 [Example 46b, trans-4-(4-{[2-(4-Fluoro-phenoxy)-ethyl]-methyl-amino}-cyclohexyl)-phenol]	10
Cc1cccc(OCCN(C)[C@H]2CC[C@H](c3ccc(O)cc3)CC2)c1 [Example 47b, trans-4-{4-[Methyl-(2-m-tolyloxy-ethyl)-amino]-cyclohexyl}-phenol]	30
Cc1ccccc1OCCN(C)[C@H]1CC[C@H](c2ccc(O)cc2)CC1 [Example 48c, trans-4-{4-[Methyl-(2-o-tolyloxy-ethyl)-amino]-cyclohexyl}-phenol]	40
CN(CCCc1ccccc1)[C@H]1CC[C@H](c2ccc(NS(C)(=O)=O)cc2)CC1 [Example 56, trans-N-(4-{4-[Methyl-(3-phenyl-propyl)-amino]-cyclohexyl}-phenyl)-methanesulfonamide]	11

Further lines, results first:

IC50 [nM]	Compound
20	CN(CCC(O)c1ccccc1)[C@H]1CC[C@H](c2ccc(O)cc2)CC1 (mixture of isomers) [Example 63b, (RS)-4-[trans-4-[(3-Hydroxy-3-phenyl-propyl)-methyl-amino]-cyclohexyl]-phenol]
60	Oc1ccc([C@H]2CC[C@H](NCCC(O)c3ccccc3)CC2)cc1 (mixture of isomers) [Example 64b, (RS)-4-[trans-4-(3-Hydroxy-3-phenyl-propylamino)-cyclohexyl]-phenol]
10	CN(C(CO)CCc1ccccc1)[C@H]1CC[C@H](c2ccc(O)cc2)CC1 (mixture of isomers) [Example 65b, (RS)-4-[trans-4-[(1-Hydroxymethyl-3-phenyl-propyl)-methyl-amino]-cyclohexyl]-phenol]
20	OCC(CCc1ccccc1)N[C@H]1CC[C@H](c2ccc(O)cc2)CC1 (mixture of isomers) [Example 66c, (RS)-4-[trans-4-(1-Hydroxymethyl-3-phenyl-propylamino)-cyclohexyl]-phenol]
100	CN(CCC(CO)c1ccccc1)[C@H]1CC[C@H](c2ccc(O)cc2)CC1 (mixture of isomers) [Example 67b, (RS)-4-[trans-4-[(4-Hydroxy-3-phenyl-butyl)-methyl-amino]-cyclohexyl]-phenol]
100	OCC(CN[C@H]1CC[C@H](c2ccc(O)cc2)CC1)Cc1ccccc1 (mixture of isomers) [Example 70b, (RS)-4-[trans-4-(2-Hydroxymethyl-3-phenyl-propylamino)-cyclohexyl]-phenol]
10	C[C@@H]1C[C@H](c2ccc(O)cc2)CC[C@H]1N(C)CCCc1ccccc1 (racemic) [Example 73b, (1RS,3RS,4RS)-4-[3-Methyl-4-[methyl-(3-phenyl-propyl)-amino]-cyclohexyl]-phenol]
10	C[C@@H]1C[C@H](c2ccc(O)cc2)CC[C@H]1NCCCc1ccccc1 (racemic) [Example 74c, (1RS,3RS,4RS)-4-[3-Methyl-4-(3-phenyl-propylamino)-cyclohexyl]-phenol]
27	C[C@@H]1CN(c2ccc(O)cc2)CC[C@@H]1NCCCc1ccccc1 (racemic) [Example 81g, (3RS,4SR)-4-[3-Methyl-4-(3-phenyl-propylamino)-piperidin-1-yl]-phenol]
7	Cc1ccc(CCCN[C@H]2CC[C@H](c3ccc(O)cc3)CC2)cc1 [Example 60b, trans-4-[4-(3-p-Tolyl-propylamino)-cyclohexyl]-phenol]
4	CN(CCCc1ccc(F)cc1)[C@H]1CC[C@H](c2ccc(O)cc2)CC1 [Example 61b, trans-4-(4-{[3-(4-Fluoro-phenyl)-propyl]-methyl-amino}-cyclohexyl)-phenol]
6	Oc1ccc([C@H]2CC[C@H](NCCCc3ccc(F)cc3)CC2)cc1 [Example 62b, trans-4-[4-[3-(4-Fluoro-phenyl)-propylamino]-cyclohexyl]-phenol]
7	CN(CCCc1ccccc1)C1CCN(c2ccc(O)cc2)CC1 [Example 75, 4-[4-[Methyl-(3-phenyl-propyl)-amino]-piperidin-1-yl]-phenol]
7	Oc1ccc(N2CCC(NCCCc3ccccc3)CC2)cc1 [Example 77, 4-[4-(3-Phenyl-propylamino)-piperidin-1-yl]-phenol]
60	Oc1ccc(N2CCC(NCCCCc3ccccc3)CC2)cc1 [Example 83c, 4-[4-(4-Phenyl-butylamino)-piperidin-1-yl]-phenol]
